In US7741334B2, “Low dose therapy for treating viral infections” (priority 2004, dated 2010):

Legend:
[1] = Therapeutic window from PK versus PD relationship; conditions: human
Description: Pharmacokinetics and pharmacodynamics modeling was used to explore potential dosing regimens for Elvucitabine. A pharmacokinetics (PK) model was developed to describe both the plasma concentration-time data and excreted urinary amounts from previously completed studies with Elvucitabine. With the PK model in hand and pharmacodynamics (PD) results of previously completed studies, the relationship of PK and PD from an efficacy and toxicity standpoint is obtained. From the results of the PK and PD studies, a therapeutic window of Elvucitabine is defined and simulated dosing regimens ranging from 5 mg BID to 100 mg Q1 week were explored using ADAPT II® Pharmacokinetic and Pharmacodynamic Systems Analysis Software. From the simulated dosing regimen results, ten dosing regimens were identified allowing maintenance therapy with Elvucitabine at levels effective against both HIV and HBV while avoiding bone toxicity.
From the foregoing results, a therapeutic window of Elvucitabine was identified. It has been determined that a 5 mg QD dose is effective for HBV and, therefore, a plasma AUCss/24 of 300 μg·h/L was identified as the efficacy threshold.

[2] = Population PK analysis of plasma and urine data, study ACH443-011, 1×20 mg tablet PO; conditions: human, in vivo
Procedure: The PK model created included an individual compartmental PK analysis using ADAPT-II® and Population PK analysis using an iterative two-stage population modeling technique (IT2S®) of plasma and urine data from a study of healthy subjects, n=29, 1×20 mg tablet PO (ACH443-011). FIG. 1 illustrates the PK model of Elvucitabine according to a three compartment model characterized by two absorption peaks, each associated with a lag time and a first order absorption rate constant.
FIG. 2 illustrates an example of individual fit using a Population PK analysis (IT2S).

apparent volume of distribution (VSS) [2]: 1600 L
fraction unbound [2]: 0.396
SMILES: Nc1nc(=O)n([C@H]2C=C[C@@H](CO)O2)cc1F [Elvucitabine, 4-amino-5-fluoro-1-((2R,5S)-5-(hydroxymethyl)-2,5-dihydrofuran-2-yl)pyrimidin-2(1H)-one]
Cmax [1]: > 40 ng/mL
central compartment (plasma) Cmin at onset of toxicity [1]: ≥ 23 ng/mL
